Drawing on patent US4863904A, “Dipeptides as renin inhibitors” (priority 1984, dated 1989), this text covers IC50 for 29 compounds.

The target in the first test is T1, human renin (Homo sapiens, UniProt P00797).
T1 sequence (P00797 67-406): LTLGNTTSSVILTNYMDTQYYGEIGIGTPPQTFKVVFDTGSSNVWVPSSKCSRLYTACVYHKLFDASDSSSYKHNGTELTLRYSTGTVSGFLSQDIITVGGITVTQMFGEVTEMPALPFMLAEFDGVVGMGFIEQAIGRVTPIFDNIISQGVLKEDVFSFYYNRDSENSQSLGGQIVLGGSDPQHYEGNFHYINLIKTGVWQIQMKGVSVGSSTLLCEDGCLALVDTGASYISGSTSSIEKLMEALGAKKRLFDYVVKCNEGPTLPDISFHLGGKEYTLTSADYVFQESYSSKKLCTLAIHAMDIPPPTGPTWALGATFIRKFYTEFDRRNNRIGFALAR
Put plainly: Human renin-sheep renin substrate reaction system in vitro. Type of test: biochemical. The settings on record: IC50 (molar concentration), purified human renin, semipurified sheep renin substrate, pH 7.4, 37° C., 15 minutes; angiotensin I by radioimmunoassay. As to the method: The mixture was incubated for 15 minutes on a water bath at 37° C., and the reaction mixture was allowed to stand for 5 minutes on a water bath at 100° C. to stop the reaction. After cooling, 200 μl of the solution was taken up and the amount of angiotensin I produced by the addition of renin was determined by radioimmunoassay. The inhibitory effect was calculated by the following equation. [formula]
As a control, the same procedure as above was carried out by using 50 μl of dimethyl sulfoxide alone in place of the 50 μl of dimethyl sulfoxide solution containing a dipeptide of the present invention.
Consider `CC(C)C[C@@H](CO)NC(=O)[C@H](Cc1c[nH]cn1)NC(=O)C(CCCC(=O)c1ccccc1)Cc1cccc2ccccc12` (mixture of isomers), for which the IC50 worked out at 13 µM. As to `CC(C)C[C@@H](CO)NC(=O)[C@H](Cc1c[nH]cn1)NC(=O)C(CCOCCc1ccccc1)Cc1cccc2ccccc12` (mixture of isomers) [N-[(±)-2-(1-Naphthylmethyl)-4-phenethoxybutyryl]-L-histidyl-L-leucinol], the IC50 stood at 15 µM. Turning to `CC(C)C[C@@H](CO)NC(=O)[C@H](Cc1c[nH]cn1)NC(=O)C(CCCCc1ccccc1)Cc1cccc2ccccc12` (mixture of isomers) [N-[(±)-2-(1-Naphthylmethyl)-6-phenylhexanoyl]-L-histidyl-L-leucinol], the IC50 is 5.4 µM.

The same test, now with this note: purified human renin, semipurified sheep renin substrate, pH 7.4, 37° C., 15 minutes; angiotensin I by radioimmunoassay; read-out: IC50 (molar concentration).
For `CC(C)C[C@@H](CO)NC(=O)[C@H](Cc1c[nH]cn1)NC(=O)C(CCCCc1ccccc1)Oc1cccc2ccccc12` (mixture of isomers) [N-[(±)-2-(1-Naphthoxy)-6-phenylhexanoyl]-L-histidyl-L-leucinol], the IC50 was found to be 76 µM. For `CC(C)C[C@@H](C=O)NC(=O)[C@H](Cc1c[nH]cn1)NC(=O)C(CCOCCc1ccccc1)Cc1cccc2ccccc12` (mixture of isomers) [N-[(±)-2-(1-Naphthylmethyl)-4-phenethoxybutyryl]-L-histidyl-L-leucinal], the IC50 was 0.075 µM.

`CC(C)C[C@@H](CO)NC(=O)[C@H](Cc1c[nH]cn1)NC(=O)C(CCCOc1ccccc1)Cc1cccc2ccccc12` (mixture of isomers) [N-[(±)-2-(1-Naphthylmethyl)-5-phenoxyvaleryl]-L-histidyl-L-leucinol]: the IC50 was 26 µM. Take `CC(C)C[C@@H](C=O)NC(=O)[C@H](Cc1c[nH]cn1)NC(=O)C(CC=Cc1ccccc1)Cc1cccc2ccccc12` (mixture of isomers) [N-[(±)-2-(1-Naphthylmethyl)-5-phenyl-4-pentenoyl]-L-histidyl-L-leucinal]: the IC50 was 0.22 µM. `CC(C)C[C@@H](CO)NC(=O)[C@H](Cc1c[nH]cn1)NC(=O)C(CC=Cc1ccccc1)Cc1cccc2ccccc12` (mixture of isomers) [N-[(±)-2-(1-Naphthylmethyl)-5-phenyl-4-pentenoyl]-L-histidyl-L-leucinol]: the IC50 was 2.7 µM. On to `CC(C)C[C@@H](CO)NC(=O)[C@H](Cc1c[nH]cn1)NC(=O)C(CCCc1ccccc1)Cc1cccc2ccccc12` (mixture of isomers) [N-[(±)-2-(1-Naphthylmethyl)-5-phenylvaleryl]-L-histidyl-L-leucinol], for which the IC50 was 13 µM.

For `CC(C)C[C@@H](C=O)NC(=O)[C@H](Cc1c[nH]cn1)NC(=O)C(CC=CC=Cc1ccccc1)Cc1cccc2ccccc12` (mixture of isomers) [N-[(±)-2-(1-Naphthylmethyl)-7-phenyl-4,6-heptadienoyl]-L-histidyl-L-leucinal], the IC50 was 0.44 µM. For `CC(C)C[C@@H](CO)NC(=O)[C@H](Cc1c[nH]cn1)NC(=O)C(CC=CC=Cc1ccccc1)Cc1cccc2ccccc12` (mixture of isomers) [N-[(±)-2-(1-Naphthylmethyl)-7-phenyl-4,6-heptadienoyl]-L-histidyl-L-leucinol], the IC50 amounted to 12 µM.

For the compound `CC(C)C[C@@H](C=O)NC(=O)[C@H](Cc1c[nH]cn1)NC(=O)C(Cc1ccccc1)C(=O)NCc1cccc2ccccc12` (mixture of isomers) [N-[(±)-2-(1-Naphthylmethylcarbamoyl)-3-phenylpropionyl]-L-histidyl-L-leucinal], the IC50 turned out to be 8.2 µM. `CC(C)C[C@@H](C=O)NC(=O)[C@H](Cc1c[nH]cn1)NC(=O)C(CNC(=O)Cc1cccc2ccccc12)Cc1ccccc1` (mixture of isomers) [N-[(±)-2-Benzyl-3-(1-naphthylacetamido)propionyl]-L-histidyl-L-leucinal]: the IC50 is 7.6 µM. For the compound `CC(C)C[C@@H](C=O)NC(=O)[C@H](Cc1c[nH]cn1)NC(=O)C(CC(=O)NCc1cccc2ccccc12)Cc1ccccc1` (mixture of isomers) [N-[(±)-2-Benzyl-3-(1-naphthylmethylcarbamoyl)propionyl]-L-histidyl-L-leucinal], the IC50 turned out to be 7.2 µM. Regarding `CC(C)C[C@@H](C=O)NC(=O)[C@H](Cc1c[nH]cn1)NC(=O)C(CCCC(=O)c1ccccc1)Cc1cccc2ccccc12` (mixture of isomers) [N-[(±)-5-Benzoyl-2-(1-naphthylmethyl)valeryl]-L-histidyl-L-leucinal], the IC50 worked out at 0.19 µM. Same read-out and setting: the figure for `CC(C)C[C@@H](CO)NC(=O)[C@H](Cc1c[nH]cn1)NC(=O)C(CC(=O)NCCc1ccccc1)Cc1cccc2ccccc12` (single isomer, unassigned) [N-[2-(1-Naphthylmethyl)-3-(phenethylcarbamoyl)propionyl]-L-histidyl-L-leucinol] is 25 µM; for `CC(C)C[C@@H](CO)NC(=O)[C@H](Cc1c[nH]cn1)NC(=O)C(CC(=O)Nc1ccccc1)Cc1cccc2ccccc12` (single isomer, unassigned) [N-[2-(1-Naphthylmethyl)-3-(phenylcarbamoyl)propionyl]-L-histidyl-L-leucinol(isomer A)] it is 65 µM. Turning to `CC(C)C[C@@H](CO)NC(=O)[C@H](Cc1c[nH]cn1)NC(=O)C(CC(=O)Nc1ccccc1)Cc1cccc2ccccc12` (single isomer, unassigned) [N-[2-(1-Naphthylmethyl)-3-(phenylcarbamoyl)propionyl]-L-histidyl-L-leucinol(isomer B)], the IC50 came to 18 µM. Take `CC(C)C[C@@H](CO)NC(=O)[C@H](Cc1c[nH]cn1)NC(=O)C(CNCCCc1ccccc1)Cc1cccc2ccccc12` (single isomer, unassigned) [N-[2-(1-naphthylmethyl)-3-(3-phenylpropylamino)propionyl]-L-histidyl-L-leucinol (isomer A)]: the IC50 turned out to be 47 µM. In the case of `CC(C)C[C@@H](C=O)NC(=O)[C@H](Cc1c[nH]cn1)NC(=O)C(CC(=O)NCCc1ccccc1)Cc1cccc2ccccc12` (single isomer, unassigned) [N-[2-(1-naphthylmethyl)-3-(phenethylcarbamoyl)propionyl]-L-histidyl-L-leucinal (isomer A)], the IC50 came to 0.041 µM.

As to `CC(C)C[C@@H](CO)NC(=O)[C@H](Cc1c[nH]cn1)NC(=O)C(CC(=O)NCCc1ccccc1)Cc1cccc2ccccc12` (single isomer, unassigned) [N-[2-(1-naphthylmethyl)-3-(phenethylcarbamoyl)propionyl]-L-histidyl-L-leucinol (isomer A)], the IC50 was found to be 7.4 µM. On the same count and under the same terms, as for `O=C(CC(Cc1cccc2ccccc12)C(=O)N[C@@H](Cc1c[nH]cn1)C(=O)N[C@H](CO)Cc1ccccc1)NCCc1ccccc1` (single isomer, unassigned) [N-[2-(1-naphthylmethyl)-3-(phenethylcarbamoyl)propionyl]-L-histidyl-L-phenylalaninol (isomer A)], the figure is 91 µM; as for `CC(C)C[C@@H](C=O)NC(=O)[C@H](Cc1c[nH]cn1)NC(=O)C(CC(=O)NCc1ccccc1)Cc1cccc2ccccc12` (single isomer, unassigned) [N-[3-(Benzylcarbamoyl)-2-(1-naphthylmethyl)propionyl]-L-histidyl-L-leucinal(isomer A)], 0.07 µM; as for `CC(C)C[C@@H](C=O)NC(=O)[C@H](Cc1c[nH]cn1)NC(=O)C(CC(=O)NCc1ccccc1)Cc1cccc2ccccc12` (single isomer, unassigned) [N-[3-(Benzylcarbamoyl)-2-(1-naphthylmethyl)propionyl]-L-histidyl-L-leucinal(isomer B)], 4.9 µM. With `CC(C)C[C@@H](CO)NC(=O)[C@H](Cc1c[nH]cn1)NC(=O)C(CC(=O)NCc1ccccc1)Cc1cccc2ccccc12` (single isomer, unassigned) [N-[3-(Benzylcarbamoyl)-2-(1-naphthylmethyl)propionyl]-L-histidyl-L-leucinol(isomer A)], the IC50 turned out to be 19 µM. For the compound `CC(C)C[C@@H](CO)NC(=O)[C@H](Cc1c[nH]cn1)NC(=O)C(CC(=O)NCc1ccccc1)Cc1cccc2ccccc12` (single isomer, unassigned) [N-[3-(Benzylcarbamoyl)-2-(1-naphthylmethyl)propionyl]-L-histidyl-L-leucinol(isomer B)], the IC50 is 27 µM. Turning to `CC(C)C[C@@H](CO)NC(=O)[C@H](Cc1c[nH]cn1)NC(=O)C(CC(=O)NCCc1c[nH]c2ccccc12)Cc1cccc2ccccc12` (single isomer, unassigned) [N-{3-[2-(3-Indolyl)ethylcarbamoyl]-2-(1-naphthylmethyl)propionyl}-L-histidyl-L-leucinol (isomer A)], the IC50 came out at 28 µM.

With `CC(C)C[C@@H](CO)NC(=O)[C@H](Cc1c[nH]cn1)NC(=O)C(CC(=O)NCCc1c[nH]c2ccccc12)Cc1cccc2ccccc12` (single isomer, unassigned) [N-{3-[2-(3-Indolyl)ethylcarbamoyl]-2-(1-naphthylmethyl)propionyl}-L-histidyl-L-leucinol (isomer B)], the IC50 stood at 6.6 µM. Consider `CC(C)C[C@@H](C=O)NC(=O)[C@H](Cc1c[nH]cn1)NC(=O)C(Cc1ccccc1)Cc1ccccc1` [N-(2-Benzyl-3-phenylpropionyl)-L-histidyl-L-leucinal], for which the IC50 was found to be 1.1 µM.
